Data: patent publication US20240374581A1, “SALT TYPES OF TRICYCLIC TETRAHYDRO ISOQUINOLINE DERIVATIVE” (JIANGSU HENGRUI PHARMACEUTICALS CO., LTD., priority 2021, published 2024)
pIC50: −log10 of the molar value.

Legend:
ERα = ERα (Homo sapiens (Human), UniProt P03372); assay: Degradation of ERα in MCF-7 cells (ELISA); type: cell-based; details: 16 to 18 h, read-out: EC50, degradation of ERα
Protocol: ERα-positive breast cancer cell line MCF-7 cells were cultured in a DMEM/F12 medium (HyClone, SH30023.01) containing 10% fetal bovine serum (Corning, 35-010-CV). […] The 48-well plate was placed in the incubator for 16 to 18 h. A 96-well plate was coated with the capture antibody from the human ERα/NR3A1 total protein assay kit (R&D, DYC5715-5). […] The plate was placed in an incubator at 26° C. overnight. On day 3, the antibody-coated 96-well plate was washed once with PBS, and 200 μL of PBS containing 1% BSA was added to each well. The plate was incubated in an incubator at 37° C. for 1.5 h to be blocked. The cell culture medium supernatant was discarded. […] A biotinylated assay antibody was diluted to 0.4 μg/mL with PBS containing 1% BSA, and then 100 μL of the assay antibody was added to each well. The plate was incubated in an incubator at 37° C. for 1 h. The plate was then washed five more times, and 100 μL of avidin-HRP diluted 200-fold with PBS containing 1% BSA was added to each well. The plate was incubated at 37° C. for 30 min.

[1] = Long-term/accelerated stability; type: physicochemical; details: for Crystal form: up to 3 months
MCF-7 cells = assay: Inhibition of proliferation of MCF-7 cells (ATP method); type: cell-based; details: Homo sapiens, MCF7; 72 h, Cell Titer-Glo; read-out: IC50, inhibitory effect on proliferation of MCF-7 cells
Protocol: This experiment was intended to test the inhibitory effect of the compound disclosed herein on the proliferation of MCF-7 cells by using the ATP method, and to evaluate the in vitro activity of the compound according to the IC50 value.
MCF-7 cells (TCHu74, National Collection of Authenticated Cell Cultures) were seeded into a 96-well plate with an MEM (hyclone, SH30024.01B) medium containing 10% FBS (Gibco, 10099-141), 1% sodium pyruvate (sigma, S8636) and 1% non-essential amino acid (sigma, M7145) at a density of 4,000 cells/well and cultured at 37° C. with 5% CO2. 20 mM stock solution of the compound was prepared, serially diluted with 100% DMSO to a final concentration of 1000×, and then diluted 20-fold with a medium containing 2% FBS. After the cells were cultured for 24 h, the medium was removed. 90 μL of the medium containing 2% FBS and 10 μL of a drug were added to each well, and 10 μL of DMSO was added to the control group. The mixtures were well mixed by gentle shaking. The blank group contained only 100 μL of the medium containing 2% FBS. The cells were cultured in an incubator at 37° C. with 5% CO2 for 72 h, and then 50 μL of mixed Cell Titer-Glo (Promega, G7571) was added to each well. The mixtures were well mixed by shaking and let stand at room temperature for 10 min, and the chemiluminescence signal value was determined. […]

[2] = Influencing factor stability study

Sequence of ERα (P03372 whole entry): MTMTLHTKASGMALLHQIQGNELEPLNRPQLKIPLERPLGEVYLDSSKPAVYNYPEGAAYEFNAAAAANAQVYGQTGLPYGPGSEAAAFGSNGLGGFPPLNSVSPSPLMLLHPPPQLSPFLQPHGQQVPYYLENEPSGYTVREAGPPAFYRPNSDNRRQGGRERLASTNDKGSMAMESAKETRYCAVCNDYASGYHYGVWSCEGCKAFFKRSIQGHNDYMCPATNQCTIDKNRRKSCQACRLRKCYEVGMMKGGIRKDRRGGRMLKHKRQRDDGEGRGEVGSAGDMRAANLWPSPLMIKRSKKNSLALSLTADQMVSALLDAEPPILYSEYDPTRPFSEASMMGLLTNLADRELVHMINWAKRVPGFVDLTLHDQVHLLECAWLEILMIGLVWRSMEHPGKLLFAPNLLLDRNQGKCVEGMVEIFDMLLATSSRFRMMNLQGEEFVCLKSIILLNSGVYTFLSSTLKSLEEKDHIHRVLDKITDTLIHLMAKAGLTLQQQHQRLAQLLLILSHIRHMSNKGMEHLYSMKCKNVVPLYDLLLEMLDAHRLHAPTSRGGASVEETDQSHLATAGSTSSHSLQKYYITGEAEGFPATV

For `[2H]C1([2H])Oc2cc3c(cc2O1)[C@@H](c1ccc(NC2CN(CCCF)C2)cn1)N(CC(F)(F)CO)[C@H](C)C3` [Compound 1, 2,2-Difluoro-3-((5S,7R)-5-(5-((1-(3-fluoropropyl)azetidin-3-yl)amino)pyridin-2-yl)-7-methyl-7,8-dihydro-[1,3]dioxolo[4,5-g]isoquinolin-6(5H)-yl-2,2-d2)propan-1-ol], the DC50 (ERα) was 380 pM, the “Purity (%) 1 month” value ([1]; 25° C./60% RH) was 97.1% and the “Purity (%) 2 months” value ([1]; 25° C./60% RH) was 96.7%. For the same compound, the “Purity (%) 3 months” value ([1]; 25° C./60% RH) was 96.7%, the “Purity (%) 7 days” value ([1]; 25° C./60% RH) was 97.1% and the “Purity (%) 14 days” value ([1]; 25° C./60% RH) was 97.0%. For the same compound, the “Purity (%) Initial” value ([1]; 25° C./60% RH) was 97.1%, the Crystal form ([1]; 25° C./60% RH) was “Unchanged” and the “Purity (%) 1 month” value ([1]; 40° C./75% RH) was 96.5%. For the same compound, the “Purity (%) 2 months” value ([1]; 40° C./75% RH) was 95.5%, the “Purity (%) 3 months” value ([1]; 40° C./75% RH) was 94.9% and the “Purity (%) 7 days” value ([1]; 40° C./75% RH) was 96.8%. For the same compound, the “Purity (%) 14 days” value ([1]; 40° C./75% RH) was 96.6%, the “Purity (%) Initial” value ([1]; 40° C./75% RH) was 97.1% and the Crystal form ([1]; 40° C./75% RH) was “Unchanged”. For the same compound, the pIC50 (MCF-7 cells) was 9.54, the Crystal form ([2]; 40° C., 1 month) was “Amorphous form” and the “Purity (%)” value ([2]; 40° C., 1 month) was 95.4%. For the same compound, the Crystal form ([2]; 40° C., 5 days) was “Amorphous form”, the “Purity (%)” value ([2]; 40° C., 5 days) was 96.7% and the Crystal form ([2]; 40° C., 10 days) was “Amorphous form”. For the same compound, the “Purity (%)” value ([2]; 40° C., 10 days) was 96.5%, the Crystal form ([2]; 60° C., 1 month) was “Amorphous form” and the “Purity (%)” value ([2]; 60° C., 1 month) was 87.6%. The Crystal form ([2]; 60° C., 5 days) was “Amorphous form”, the “Purity (%)” value ([2]; 60° C., 5 days) was 95.7% and the Crystal form ([2]; 60° C., 10 days) was “Amorphous form”. For the same compound, the “Purity (%)” value ([2]; 60° C., 10 days) was 94.2%, the “behaviour under the high-humidity conditions (conclusion)” value ([2]; 75% RH and 92.5% RH, 30 days) was “deliquesced” and the Crystal form ([2]; 75% RH, 1 month) was “Deliquescence”. For the same compound, the “Purity (%)” value ([2]; 75% RH, 1 month) was 96.9%, the Crystal form ([2]; 75% RH, 5 days) was “Amorphous form” and the “Purity (%)” value ([2]; 75% RH, 5 days) was 97.0%. The Crystal form ([2]; 75% RH, 10 days) was “Amorphous form”, the “Purity (%)” value ([2]; 75% RH, 10 days) was 97.0% and the Crystal form ([2]; 92.5% RH, 1 month) was “Deliquescence”. The “Purity (%)” value ([2]; 92.5% RH, 1 month) was 97.0%, the Crystal form ([2]; 92.5% RH, 5 days) was “Amorphous form” and the “Purity (%)” value ([2]; 92.5% RH, 5 days) was 96.9%. For the same compound, the Crystal form ([2]; 92.5% RH, 10 days) was “Amorphous form”, the “Purity (%)” value ([2]; 92.5% RH, 10 days) was 97.0% and the Crystal form ([2]; 4500 Lux, 1 month) was “Amorphous form”. The “Purity (%)” value ([2]; 4500 Lux, 1 month) was 71.7%, the Crystal form ([2]; 4500 Lux, 5 days) was “Amorphous form” and the “Purity (%)” value ([2]; 4500 Lux, 5 days) was 94.0%. The Crystal form ([2]; 4500 Lux, 10 days) was “Amorphous form”, the “Purity (%)” value ([2]; 4500 Lux, 10 days) was 89.9% and the Crystal form ([2]; Initial, 0 days) was “Amorphous form”. The “Purity (%)” value ([2]; Initial, 0 days) was 97.1%.
